Experimental data from patent publication US20190030114A1, “ISOFORM-SPECIFIC CALPAIN INHIBITORS, METHODS OF IDENTIFICATION, AND USES THEREOF” (WESTERN UNIVERSITY OF HEALTH SCIENCES, priority 2014, published 2019).
Where two headings read alike, the source gives them in different places.

How the values were obtained:
SBDP = SBDP formation in IPL after acute IOP elevation, intravitreal C2l in calpain-1 KO mice; assay type: in vivo; conditions: Mus musculus, intravitreal (1 μl) 2 h after IOP elevation, SBDP at 4 h, read-out: apparent IC50, inhibition of SBDP formation in IPL
Protocol: We used intravitreal C2l injection in order to locally deliver C2l to retina. First, we tested the delivery efficiency by injecting different doses of C2l intravitreally 2 h after IOP elevation in calpain-1 KO mice and analyzing SBDP levels in IPL at 4 h (FIG. 12A and B). […] In all subsequent experiments, 20 μM (1 μl) was used to examine the neuroprotective effects of intravitreal C2l injection. Eyes were collected 3 days after surgery for H&E staining.

calpain-2 = biological target: T1, calpain-2 (Homo sapiens, UniProt P17655); experiment: in vitro calpain-2 inhibition, succinic-Leu-Tyr-AMC substrate; assay type: biochemical
T1 sequence (P17655 1-700): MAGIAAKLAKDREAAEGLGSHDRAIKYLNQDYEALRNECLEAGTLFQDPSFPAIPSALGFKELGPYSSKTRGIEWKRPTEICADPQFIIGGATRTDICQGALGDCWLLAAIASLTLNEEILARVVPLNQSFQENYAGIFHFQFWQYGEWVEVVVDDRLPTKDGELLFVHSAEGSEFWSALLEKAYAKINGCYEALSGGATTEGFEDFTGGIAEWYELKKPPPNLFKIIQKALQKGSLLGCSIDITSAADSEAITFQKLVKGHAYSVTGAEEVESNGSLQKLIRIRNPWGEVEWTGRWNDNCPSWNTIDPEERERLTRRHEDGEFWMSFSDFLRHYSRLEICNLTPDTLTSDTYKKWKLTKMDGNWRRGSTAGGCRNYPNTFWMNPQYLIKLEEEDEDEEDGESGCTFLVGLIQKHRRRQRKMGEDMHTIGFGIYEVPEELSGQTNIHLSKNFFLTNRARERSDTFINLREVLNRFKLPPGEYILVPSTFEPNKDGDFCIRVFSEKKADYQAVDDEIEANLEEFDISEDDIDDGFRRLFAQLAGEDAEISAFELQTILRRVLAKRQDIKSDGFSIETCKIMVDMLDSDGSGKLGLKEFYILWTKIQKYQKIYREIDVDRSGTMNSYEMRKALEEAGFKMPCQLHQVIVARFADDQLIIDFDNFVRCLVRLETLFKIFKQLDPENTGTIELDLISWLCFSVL
T1 sequence (P04632 1-268 partner): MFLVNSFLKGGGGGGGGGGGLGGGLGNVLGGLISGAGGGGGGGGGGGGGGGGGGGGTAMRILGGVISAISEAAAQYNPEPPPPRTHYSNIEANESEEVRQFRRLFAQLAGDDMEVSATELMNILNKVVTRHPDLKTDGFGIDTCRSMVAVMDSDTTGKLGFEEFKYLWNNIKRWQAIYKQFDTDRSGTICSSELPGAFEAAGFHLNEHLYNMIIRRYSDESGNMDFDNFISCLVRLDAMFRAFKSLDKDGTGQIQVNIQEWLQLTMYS
Protocol: (§1) Formula 1, where chiral center 1 is the L-form and chiral center 2 is a racemic mixture of D- and L- in this example was introduced at various concentrations (from 1 nM to 10 μM) into an in vitro mix comprising succinic-Leu-Tyr-AMC and calpain-1 or calpain-2 (Sasaki et al, 1984), and the kinetics of the loss of fluorescence were determined for each of the calpains (Powers et al, 2000). […] Therefore, the assessment of selectivity described herein was different than the prior teaching.
(§2) Formula 1A, where chiral center 1 is the S-form and chiral center 2 is the S-form was separated from the S-R-form (Formula 1B) using methods that are well-known methods for separating diastereoisomers. Formula 1A, which is also referred to herein as compound 18A, in this example was introduced at various concentrations into an in vitro mix comprising succinic-Leu-Tyr-AMC and μ-calpain or m-calpain (Sasaki et al, 1984), and the kinetics of the loss of fluorescence were determined for each of the calpains.

calpain-1 = biological target: T2, calpain-1 (Homo sapiens, UniProt P07384); experiment: in vitro calpain-1 inhibition, succinic-Leu-Tyr-AMC substrate; assay type: biochemical
T2 sequence (P07384 1-714): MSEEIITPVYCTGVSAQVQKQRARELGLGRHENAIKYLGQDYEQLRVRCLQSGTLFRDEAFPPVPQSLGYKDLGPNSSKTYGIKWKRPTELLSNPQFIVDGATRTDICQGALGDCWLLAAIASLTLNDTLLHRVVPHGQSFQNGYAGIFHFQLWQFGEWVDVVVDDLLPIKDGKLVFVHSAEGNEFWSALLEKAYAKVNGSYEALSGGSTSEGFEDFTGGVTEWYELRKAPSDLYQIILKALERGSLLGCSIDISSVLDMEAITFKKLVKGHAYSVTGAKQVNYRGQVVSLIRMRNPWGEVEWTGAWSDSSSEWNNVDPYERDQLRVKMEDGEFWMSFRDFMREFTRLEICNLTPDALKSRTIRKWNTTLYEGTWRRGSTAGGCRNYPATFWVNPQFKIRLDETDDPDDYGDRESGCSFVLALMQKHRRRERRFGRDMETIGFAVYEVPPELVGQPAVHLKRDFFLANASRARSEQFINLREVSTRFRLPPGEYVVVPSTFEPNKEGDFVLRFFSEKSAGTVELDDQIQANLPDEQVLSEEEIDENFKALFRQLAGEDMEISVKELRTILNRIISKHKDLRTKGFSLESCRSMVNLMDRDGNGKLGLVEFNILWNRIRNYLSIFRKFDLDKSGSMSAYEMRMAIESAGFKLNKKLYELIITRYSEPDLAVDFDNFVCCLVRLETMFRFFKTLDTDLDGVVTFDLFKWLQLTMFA
T2 sequence (P04632 1-268 partner): T1 sequence (P04632 1-268 partner)
Protocol: as §1, §2

CCC(NC(=O)C(CC(C)C)NC(=O)OCc1ccccc1)C(=O)C(=O)NCc1cc(OC)cc(OC)c1 (racemic) [Formula 1, Z-Leu-Abu-CONH—CH2-C6H3 (3, 5-(OMe)2)]
IC50 (SBDP): 8 µM
Ratio KiCalpain-1/KiCalpain-2 (calpain-2): 31.1
Ki (calpain-2; Example 1, chiral center 2 racemic, read-out: Ki for calpain-2, determined herein): 0.025 µM
Ki (calpain-2; Example 13, n = 3-4, read-out: Ki Calpain-2): 0.0213 µM
IC50 (calpain-2; n = 3-4): 0.21 µM
Ki (calpain-1; Example 1, chiral center 2 racemic, read-out: Ki of calpain-1, re-determined herein): 1.29 µM
Ki (calpain-1; Example 13, n = 3-5, read-out: Ki Calpain-1): 0.662 µM
Ki (calpain-1; earlier value, unit inferred, read-out: Previous Value (Calpain-1)): 0.94 µM
IC50 (calpain-1; n = 3-5): 0.91 µM
